These results are taken from patent US20190029257A1, “APPLICATION FOR HERBICIDE-TOLERANT PROTEIN” (BEIJING DABEINONG TECHNOLOGY GROUP CO., LTD., priority 2016, published 2019).

Holding throughout (format): in vivo
Assay [1] has as its system all the transformed Arabidopsis thaliana T1 plants (ALT-1, ALT-2 and ALT-3). Put plainly: Herbicide tolerance of Arabidopsis thaliana T1 plants. Conditions: 1-fold field concentration; summary of Table 2. The source says: (§1) At cytoplasmic ALT-1-01 T1 plants, At chloroplastic ALT-1-01 T1 plants, At cytoplasmic ALT-2-01 T1 plants, At chloroplastic ALT-2-01 T1 plants, At cytoplasmic ALT-3-01 T1 plants, At chloroplastic ALT-3-01 T1 plants and wild-type Arabidopsis thaliana plants were sprayed with halosulfuron-methyl (34 g ai/ha, 1-fold field concentration) and a blank solvent (water), respectively. Plants were counted for the resistance situations 14 days after spraying: those having a consistent growth status with the blank solvent (water) group after 14 days were classified as highly resistant plants, those having a bolting height less than ½ of that of the blank solvent (water) group after 14 days were classified as moderately resistant plants, those still not capable of bolting after 14 days were classified as poorly resistant plants, and those dead after 14 days were classified as non-resistant plants. Since each Arabidopsis thaliana T1 plant was an independent transformation event, a significant difference in individual T1 responses could be expected at a given dose.
At cytoplasmic ALT-1-01 T1 plants, At chloroplastic ALT-1-01 T1 plants, At cytoplasmic ALT-2-01 T1 plants, At chloroplastic ALT-2-01 T1 plants, At cytoplasmic ALT-3-01 T1 plants, At chloroplastic ALT-3-01 T1 plants and wild-type Arabidopsis thaliana plants in Example 4 were sprayed with iodosulfuron-methyl (10 g ai/ha, 1-fold field concentration), mesosulfuron (14 g ai/ha, 1-fold field concentration) and oxasulfuron (60 g ai/ha, 1-fold field concentration), respectively, in addition to halosulfuron-methyl (34 g ai/ha, 1-fold field concentration) and the blank solvent (water). Plants were counted for the resistance situation 14 days after spraying: those having a consistent growth status with the blank solvent (water) group after 14 days were classified as highly resistant plants, those having a bolting height less than ½ of that of the blank solvent (water) group after 14 days were classified as moderately resistant plants, those still not capable of bolting after 14 days were classified as poorly resistant plants, and those dead after 14 days were classified as non-resistant plants. Since each Arabidopsis thaliana T1 plant was an independent transformation event, a significant difference in individual T1 responses could be expected at a given dose.

In assay [2] the test system is At chloroplastic ALT-2-01 T1 plants. Description: Herbicide tolerance of Arabidopsis thaliana T1 plants (spray, resistance classes counted). Particulars: number of plants 14 days after spraying.
Text: (§2) T1 transformants were initially selected from the background of untransformed seeds using a glufosinate selection scheme. About 40000 T1 seeds were screened, and 380 T1 positive transformants (PAT gene) were identified with a transformation efficiency of about 0.95%. The plants that were transformed with the recombinant expression vector DBN100632 were Arabidopsis thaliana plants having an ALT-1-01 nucleotide sequence located in the cytoplasm introduced (At cytoplasmic ALT-1-01), and the plants that were transformed with the recombinant expression vector DBN100631 were Arabidopsis thaliana plants having an ALT-1-01 nucleotide sequence located in the chloroplast introduced (At chloroplastic ALT-1-01); the plants that were transformed with the recombinant expression vector DBN100634 were Arabidopsis thaliana plants having an ALT-2-01 nucleotide sequence located in the cytoplasm introduced (At cytoplasmic ALT-2-01), and the plants that were transformed with the recombinant expression vector DBN100633 were Arabidopsis thaliana plants having an ALT-2-01 nucleotide sequence located in the chloroplast introduced (At chloroplastic ALT-2-01); and the plants that were transformed with the recombinant expression vector DBN100636 were Arabidopsis thaliana plants having an ALT-3-01 nucleotide sequence located in the cytoplasm introduced (At cytoplasmic ALT-3-01), and the plants that were transformed with the recombinant expression vector DBN100635 were Arabidopsis thaliana plants having an ALT-3-01 nucleotide sequence located in the chloroplast introduced (At chloroplastic ALT-3-01). The herbicide tolerance effects of At cytoplasmic ALT-1-01 T1 plants, At chloroplastic ALT-1-01 T1 plants, At cytoplasmic ALT-2-01 T1 plants, At chloroplastic ALT-2-01 T1 plants, At cytoplasmic ALT-3-01 T1 plants, At chloroplastic ALT-3-01 T1 plants and wild-type Arabidopsis thaliana plants on halosulfuron-methyl were detected (14 days after sowing), respectively.
as §1, with “At cytoplasmic ALT-1-01 T1 plants, At chloroplastic ALT-1-01 T1 plants, At cytoplasmic ALT-2-01 T1 plants, At chloroplastic ALT-2-01 T1 plants, At cytoplasmic ALT-3-01 T1 plants, At chloroplastic ALT-3-01 T1 plants and wild-type Arabidopsis thaliana plants were sprayed with halosulfuron-methyl (34 g ai/ha, 1-fold field concentration) and a blank solvent (water), respectively.” left out
(§3) […] Plants were counted for the resistance situation 14 days after spraying: those having a consistent growth status with the blank solvent (water) group after 14 days were classified as highly resistant plants, those having a bolting height less than ½ of that of the blank solvent (water) group after 14 days were classified as moderately resistant plants, those still not capable of bolting after 14 days were classified as poorly resistant plants, and those dead after 14 days were classified as non-resistant plants. Since each Arabidopsis thaliana T1 plant was an independent transformation event, a significant difference in individual T1 responses could be expected at a given dose.

The test system of assay [3] is At cytoplasmic ALT-1-01 T1 plants. Described as above. Conditions: number of plants 14 days after spraying, Total 29.
Text: as §2
as §3, with “situations” for “situation”
as §3

In assay [4] the test system is At chloroplastic ALT-1-01 T1 plants. Described as above. Particulars: number of plants 14 days after spraying.
Text: as §2
as §3, with “situations” for “situation”
as §3

Assay [5] has as its system At cytoplasmic ALT-3-01 T1 plants. The assay is described as above. Particulars: number of plants 14 days after spraying, Total 30.
Text: as §2
as §3, with “situations” for “situation”
as §3

Assay [6] concerns At chloroplastic ALT-3-01 T1 plants. Described as above. Conditions: number of plants 14 days after spraying, Total 32.
Text: as §2
as §3, with “situations” for “situation”
as §3

Assay [7] deals with At cytoplasmic ALT-2-01 T1 plants. The description is as above. Conditions: number of plants 14 days after spraying.
Text: as §2
as §3, with “situations” for “situation”
as §3

Assay [8] deals with wild-type Arabidopsis thaliana plants. Description: Herbicide tolerance of Arabidopsis thaliana plants (spray, resistance classes counted). Conditions: 10 g ai/ha (1x Iod.); number of plants 14 days after spraying; Total 29.
Text: as §2, §1
At cytoplasmic ALT-1-01 T1 plants, At chloroplastic ALT-1-01 T1 plants, At cytoplasmic ALT-2-01 T1 plants, At chloroplastic ALT-2-01 T1 plants, At cytoplasmic ALT-3-01 T1 plants, At chloroplastic ALT-3-01 T1 plants and wild-type Arabidopsis thaliana plants in Example 4 were sprayed with iodosulfuron-methyl (10 g ai/ha, 1-fold field concentration), mesosulfuron (14 g ai/ha, 1-fold field concentration) and oxasulfuron (60 g ai/ha, 1-fold field concentration), respectively, in addition to halosulfuron-methyl (34 g ai/ha, 1-fold field concentration) and the blank solvent (water). […]

The subject of assay [9] is Gm chloroplastic ALT-3-01 soybean plants. Put plainly: Glyphosate tolerance of soybean plants (herbicide damage rate). Particulars: 840 g ae/ha, 1-fold field concentration; 14 DAT. The source says: (§4) The herbicide tolerance effects of Gm cytoplasmic ALT-1-01 soybean plants, Gm chloroplastic ALT-1-01 soybean plants, Gm cytoplasmic ALT-2-01 soybean plants, Gm chloroplastic ALT-2-01 soybean plants, Gm cytoplasmic ALT-3-01 soybean plants, Gm chloroplastic ALT-3-01 soybean plants and wild-type soybean plants on glyphosate were detected (at seedling stage), respectively.
(§5) 2 strains from Gm cytoplasmic ALT-1-01 soybean plants, Gm chloroplastic ALT-1-01 soybean plants, Gm cytoplasmic ALT-2-01 soybean plants, Gm chloroplastic ALT-2-01 soybean plants, Gm cytoplasmic ALT-3-01 soybean plants, Gm chloroplastic ALT-3-01 soybean plants and wild-type soybean plants were respectively taken each, and 10-15 plants were selected from each strain and tested. The plants above were sprayed with glyphosate (840 g ae/ha, 1-fold field concentration) and a blank solvent (water). The herbicide damage rate was measured for each plant according to the phytotoxicity symptoms 14 days after spraying (14 DAT): herbicide damage rate (%)=Σ(number of damaged plants at the same level×level number)/(total number of plants×highest level).

Assay [10] concerns Gm chloroplastic ALT-2-01 soybean plants. The description is as above. Conditions: 840 g ae/ha, 1-fold field concentration; 14 DAT.
Text: as §4, §5

The test system of assay [11] is Gm cytoplasmic ALT-2-01 soybean plants. The description is as above. Conditions: 840 g ae/ha, 1-fold field concentration; 14 DAT.
Text: as §4, §5

Assay [12] relates to wild-type soybean plants (CK1). The description is as above. Conditions: 840 g ae/ha, 1-fold field concentration; 14 DAT.
Text: as §4, §5

Assay [13] has as its system Gm cytoplasmic ALT-1-01 soybean plants. The description is as above. Conditions: 840 g ae/ha, 1-fold field concentration; 14 DAT.
Text: as §4, §5

Assay [14] has as its system Gm chloroplastic ALT-1-01 soybean plants. The assay is described as above. Conditions: 840 g ae/ha, 1-fold field concentration; 14 DAT.
Text: as §4, §5

In assay [15] the test system is Gm cytoplasmic ALT-3-01 soybean plants. The assay is described as above. Conditions: 840 g ae/ha, 1-fold field concentration; 14 DAT.
Text: as §4, §5

The mark [16] stands for this setting: 14 g ai/ha (1x Mes.), genotype cell prints only "At".

Regarding `Cc1cc(C)nc(NC(=O)NS(=O)(=O)c2ccccc2C(=O)OC2COC2)n1` [oxasulfuron], in assay [1], the “ability of the transformed plants to degrade the herbicide” value (“ability of the transformed plants” for short) is “did not exhibit the ability to degrade” and the “degree of damage, transformed versus wild-type plants” value was “no difference”.

As for `COC(=O)c1ccc(CNS(C)(=O)=O)cc1S(=O)(=O)NC(=O)Nc1nc(OC)cc(OC)n1` [mesosulfuron], the Highly resistant in assay [2] (14 g ai/ha (1x Mes.), Total 30) is 0; in assay [3] (14 g ai/ha (1x Mes.)), 0; in assay [4] (14 g ai/ha (1x Mes.), Total 32), 0; in assay [5] (14 g ai/ha (1x Mes.)) it was 0; in [6] (setting [16]) it was 0; in [7] (14 g ai/ha (1x Mes.), Total 32), 0. In addition, the Moderately resistant in assay [2] (14 g ai/ha (1x Mes.), Total 30) was 0; in [3] (14 g ai/ha (1x Mes.)), 0; in assay [4] (14 g ai/ha (1x Mes.), Total 32), 0; in assay [5] (14 g ai/ha (1x Mes.)), 0; in [6] (setting [16]), 0; in assay [7] (14 g ai/ha (1x Mes.), Total 32), 0. The Non-resistant turned out to be 30 in assay [2] (14 g ai/ha (1x Mes.), Total 30); 29 in assay [3] (14 g ai/ha (1x Mes.)); 32 in assay [4] (14 g ai/ha (1x Mes.), Total 32); 30 in assay [5] (14 g ai/ha (1x Mes.)); 32 in assay [6] (setting [16]); 32 in [7] (14 g ai/ha (1x Mes.), Total 32). Besides, the Poorly resistant in [2] (14 g ai/ha (1x Mes.), Total 30) is 0; in assay [3] (14 g ai/ha (1x Mes.)), 0; in [4] (14 g ai/ha (1x Mes.), Total 32), 0; in assay [5] (14 g ai/ha (1x Mes.)), 0; in assay [6] (setting [16]) it was 0; in assay [7] (14 g ai/ha (1x Mes.), Total 32), 0. The “ability of the transformed plants” value in assay [1] is listed as “did not exhibit the ability to degrade”. Also, the “degree of damage, transformed versus wild-type plants” value in assay [1] was “no difference”.

For the molecule `COC(=O)c1ccc(I)cc1S(=O)(=O)NC(=O)Nc1nc(C)nc(OC)n1` [iodosulfuron-methyl], the Highly resistant in assay [2] (10 g ai/ha (1x Iod.), Total 31) amounted to 0; in assay [3] (10 g ai/ha (1x Iod.)) it was 0; in assay [4] (10 g ai/ha (1x Iod.), Total 30), 0; in assay [5] (10 g ai/ha (1x Iod.)), 0; in assay [6] (10 g ai/ha (1x Iod.)) it was 0; in [7] (10 g ai/ha (1x Iod.), Total 30), 0. In addition, the Highly resistant in assay [8] was 0. In addition, the Moderately resistant was 0 in assay [2] (10 g ai/ha (1x Iod.), Total 31); 0 in [3] (10 g ai/ha (1x Iod.)); 0 in assay [4] (10 g ai/ha (1x Iod.), Total 30); 0 in assay [5] (10 g ai/ha (1x Iod.)); 0 in assay [6] (10 g ai/ha (1x Iod.)); 0 in assay [7] (10 g ai/ha (1x Iod.), Total 30). The same molecule returned a Moderately resistant in assay [8] of 0. In addition, the Non-resistant was found to be 31 in [2] (10 g ai/ha (1x Iod.), Total 31); 29 in assay [3] (10 g ai/ha (1x Iod.)); 30 in [4] (10 g ai/ha (1x Iod.), Total 30); 30 in assay [5] (10 g ai/ha (1x Iod.)); 32 in assay [6] (10 g ai/ha (1x Iod.)); 30 in assay [7] (10 g ai/ha (1x Iod.), Total 30). In assay [8], the Non-resistant came to 29. Further, the Poorly resistant is reported as 0 in assay [2] (10 g ai/ha (1x Iod.), Total 31); 0 in [3] (10 g ai/ha (1x Iod.)); 0 in assay [4] (10 g ai/ha (1x Iod.), Total 30); 0 in [5] (10 g ai/ha (1x Iod.)); 0 in assay [6] (10 g ai/ha (1x Iod.)); 0 in assay [7] (10 g ai/ha (1x Iod.), Total 30). The molecule further came in with a Poorly resistant in [8] of 0. Further, the “ability of the transformed plants” value in assay [1] was “did not exhibit the ability to degrade”. Further, in assay [1], the “degree of damage, transformed versus wild-type plants” value was “no difference”.

For `O=C(O)CNCP(=O)(O)O` [glyphosate, N-phosphonomethylglycine], the “glyphosate herbicide damage rate” value in [9] is about 0%; in assay [10] it was about 0%; in assay [11], about 0%; in [12], “not less than 90%”; in assay [13], about 0%; in assay [14], about 0%. In addition, the “glyphosate herbicide damage rate” value in assay [15] was about 0%.
